This note sets out measurements from US12343319B2, “Compositions and methods for treatment of diseases and disorders” (Atai Therapeutics Inc., priority 2023, dated 2025).

One series relates to C57BL/6J male mice. In words: Mouse forced swim test 24 hr after single administration. The format is in vivo. Conditions: 3, 10 & 30 mg/kg i.p., 24 hr post-administration. On the procedure: Young adult C57BL/6J male mice (8-9 weeks old at arrival; n=113) were purchased from Charles River (DE). All C57BL/6J mice were housed in groups of 4 per cage. Mice were maintained under controlled conditions (21±2° C., 50±1% humidity, 12/12 h light/dark cycles, lights on at 7 a.m.) with food and water available ad libitum.
Experimental Design: The experimental procedures were in accordance with the European Communities Council Directive (Directive 2010/63 EU into the Polish Directives (Journal of Laws of 2021, item 1331, as amended)) and approved by the Local Ethic Committee in Olsztyn (Approval No. 27/203 from 22 Mar. 2023). […]
Forced Swim Test: After 17 days of acclimatization (11-12 weeks old), all mice were randomly assigned to experimental groups (n=14-15/group). Sample size (n=14 per group) was determined based on G-power calculations using alpha 0.05, t-test and effect size calculation based on mean and SD from vehicle and positive control groups. […] Because little immobility is observed during the first 2 minutes of the FST, only immobility occurring during the last 4 minutes was scored and analyzed. […] All test sessions were recorded using a video camera placed on the side of the cylinder for subsequent behavioral analysis by scorers blinded to the treatment conditions. […]
Data Analysis: Data for each compound have been analyzed separately using the GraphPad Prism 9 statistical software. […]

The nature of series [1]: Terminal plasma and brain concentrations in mice. The format is in vivo. Conditions: C57BL/6J, mouse, intraperitoneal. On the procedure:
Prior to the onset of procedures, animals were weighed and allocated into 5 groups by a statistician based on body weight. Animals sharing a cage were dosed with the same drug treatments to avoid cross contamination between groups. Animals were dosed intraperitoneally with psilocybin (3 mg/kg), or one of 3 doses of compound 2-2 (1 mg/kg, 3 mg/kg, 10 mg/kg). Dosing was to a timed scheduled. Animals were weighed prior to dosing and the body weight recorded. Food and water intake were not monitored. The animals were dosed at time “0” and then returned to the home cage. Behaviors of note after dosing were recorded. Each animal was humanely killed (by exposure to increasing CO2 concentration and confirmation of death by cervical dislocation) to allow terminal blood sampling to take place 15 minutes after dosing. The brain sampling was performed immediately after blood sampling was completed for each animal.
Post-mortem blood samples (approx. 0.5 ml) were collected from all animals by cardiac puncture for DMPK analysis, dispensed into a LH-coated tube. The blood samples were gently inverted, centrifuged promptly (2400 g for 5 minutes at 4° C.) and 150 μl of plasma from each animal was placed into a 96-well plate. Plasma samples from group B were stabilized with DTT (50 mM; 1:10). All plasma samples were frozen on dry ice and stored at approximately −80° C. prior to analysis. Whole brains were removed from all animals, rinsed briefly with saline and blot dried. The left and right frontal cortices (˜25 mg each frontal cortex) were dissected separately from the brain, weighed, placed in microtubes, frozen on dry ice and stored at −20° C. to measure receptor occupancy. The remaining brain tissue was weighed, placed in homogenization tubes, frozen on dry ice, and stored at −80° C. prior to transferring (on dry ice) to Signature DMPK with the plasma samples.

Entries after “also recorded” stand apart in the source; their conditions may differ. Like-named read-outs stand apart in the source and are kept apart here.

On to `COc1ccc(OC)c(CCNCc2cc(C)cc(Cl)c2)c1` [Compound 2-1, N-(3-chloro-5-methylbenzyl)-2-(2,5-dimethoxyphenyl)ethan-1-amine], for which the “immobility time in mouse FST” value in the series with C57BL/6J male mice is reported as “lack of robust differences; also recorded: Neither compound 2-1 (3, 10 & 30 mg/kg) nor compound 2-2 (3 & 30 mg/kg) showed significant reductions”.
In the case of `COc1ccc(OC)c(CCNCc2cc(C)cc(F)c2)c1` [Compound 2-2, 2-(2,5-dimethoxyphenyl)-N-(3-fluoro-5-methylbenzyl)ethan-1-amine], the concentration at 15 min was found to be 182 ng/g in series [1] (brain, 1 mg/kg, 1 mg/kg IP, read-out: Terminal Brain Conc (ng/g) at 15 min, Mean); 0.01 µM in series [1] (brain, 1 mg/kg, 1 mg/kg IP, read-out: Terminal Brain Free Concentration (uM) at 15 min, Mean); 0.6 µM in series [1] (brain, 1 mg/kg, 1 mg/kg IP, read-out: Terminal Brain Total Concentration (uM) at 15 min, Mean); 0.039 µM in series [1] (brain, 3 mg/kg, 3 mg/kg IP, read-out: Terminal Brain Free Concentration (uM) at 15 min, Mean); 3280 ng/g in series [1] (brain, 10 mg/kg, 10 mg/kg IP, read-out: Terminal Brain Conc (ng/g) at 15 min, Mean); 0.175 µM in series [1] (brain, 10 mg/kg, 10 mg/kg IP, read-out: Terminal Brain Free Concentration (uM) at 15 min, Mean). Besides, the concentration at 15 min in series [1] (brain, 10 mg/kg, 10 mg/kg IP, read-out: Terminal Brain Total Concentration (uM) at 15 min, Mean) is 10.8 µM; in series [1] (plasma, 1 mg/kg, 1 mg/kg IP, read-out: Terminal Plasma Conc (ng/mL) at 15 min, Mean), 60.1 ng/mL; in series [1] (plasma, 1 mg/kg, 1 mg/kg IP, read-out: Terminal Plasma Free Concentration (uM) at 15 min, Mean) it was 0.016 µM; in series [1] (plasma, 1 mg/kg, 1 mg/kg IP, read-out: Terminal Plasma Total Concentration (uM) at 15 min, Mean), 0.2 µM; in series [1] (plasma, 3 mg/kg, 3 mg/kg IP, read-out: Terminal Plasma Free Concentration (uM) at 15 min, Mean) it was 0.082 µM; in series [1] (plasma, 10 mg/kg, 10 mg/kg IP, read-out: Terminal Plasma Conc (ng/mL) at 15 min, Mean), 1020 ng/mL. Besides, the concentration at 15 min came to 0.277 µM in series [1] (plasma, 10 mg/kg, 10 mg/kg IP, read-out: Terminal Plasma Free Concentration (uM) at 15 min, Mean) and 3.38 µM in series [1] (plasma, 10 mg/kg, 10 mg/kg IP, read-out: Terminal Plasma Total Concentration (uM) at 15 min, Mean).
